# Measured values: US9162992B2, “Compounds and compositions for treatment of breathing control disorders or diseases” (GALLEON PHARMACEUTICALS, INC., priority 2010, dated 2015)
# Several values for one entry are separate records, joined by “and”; a condition that tells them apart may be missing. Equal values may be shown once. Read-outs that look alike come from different tables or passages of the source.
# Assays:
# [1] = test system: hypoxic ventilatory response; assay: Hypoxic ventilatory response (HVR) in the rat, plethysmography; type: in vivo; settings: 0.03 mg/kg/min infusion 50 min; 12% O2 for 20 min; vs vehicle
# Protocol: Rats with a pre-cannulated jugular vein (for administering drugs) were acclimated to plethysmography chambers for a minimum of 60 minutes, or until animals were no longer restless. Each animal was dosed with compound (XXXVI), labeled as cmpd (A), at 0.03 mg/kg/min via infusion into the jugular vein catheter for a period of 50 minutes. After a period of 20 minutes, an isocapnic hypoxic mixture (12% O2 balanced N2) was administered into all chambers using a gas mixer (CWE inc. GSM-3 gas mixer) for 20 minutes. After this time, the gas mixer was turned off, resulting in normal room air pumped into the chambers. Ten minutes later, the infusion pumps were turned off, and all animals were given a 20 minute recovery period, followed by a post-study analysis of rat health and behavior. […] Results are illustrated in FIG. 3.
# [2] = Solubility as a function of pH (100 mM citric acid, room temperature); type: physicochemical; settings: for solubility thermodynamic: 100 mM citric acid buffer, read-out: (XXXVI) concentration; for solubility thermodynamic / solubility: thermodynamic from solid; for (XXXVI) concentration: not saturated
# Protocol: A solution of (XXXVI) of concentration ˜[…] in 100 mM citric acid at pH 2.5 was prepared. About 150 μL aliquots of this solution were transferred into 6 separate glass HPLC vials. Each aliquot was titrated with 6N sodium hydroxide to different pH values in the range 3-5.5 (Table 12A). All the samples, including the solution at pH 2.5, were shaken overnight at room temperature using a gyratory shaker. After shaking, the samples were evaluated visually for the presence of precipitate and were then spin filtered through 0.45 μm syringe tip filters (4 mm diameter) at 3,000 rpm for 20 min. The final pH values of the filtrates were measured. The filtrates were then diluted appropriately and analyzed for (XXXV) concentration using the HPLC assay.
# This equation is a simplified representation of solubility equilibrium for weak bases that assumes that total solubility is much larger than the solubility of the free base in the pH range of interest: log S=log S0+log(1+10^pKa-pH) Equation 1 where, ‘S’ is total solubility; ‘S0’ is the solubility of the free base.
# [3] = Solubility in solvents and IV solutions; type: physicochemical
# Protocol: The solubility of (XXXXVI) and XXXV was evaluated in various solvents and IV solutions. Due to limits on the API supply at the time the study was conducted, most of the solvent systems were evaluated to a level of only 100 mg/mL even if the solution was not saturated at this level. Only in water was an attempt made to reach saturation solubility, regardless of how high that solubility might be. Solubility of the salt/free base in each solvent was evaluated in duplicate.
# For solubility in water, drug was added with intermittent shaking to ensure that excess undissolved drug is present indicating saturation […]. The filtrates were diluted appropriately and analyzed for (XXXV) concentration by HPLC.
# [4] = Stability as a function of buffer strength (1 mg/mL, citrate pH 3.0); type: physicochemical; set-up: Assay: unit not given here; settings: for Impurities: unit assumed
# Protocol: A 10 mg/mL (XXXVI) solution in 100 mM citrate buffer at pH 3.0 and a 500 mM citrate buffer at pH 3.0 were prepared. Using these two stock solutions, (XXXVI) solutions at 1 mg/mL were prepared in citrate buffers of various concentrations in the range 10-250 mM, as shown in Table 12E.
# Each of the above solutions was stored in 5 mL serum vials as ca. 2.5-3 mL aliquots (total of 7 aliquots). Two aliquots were stored at each of 40° C., 60° C. and 25° C. Aliquots stored at 25° C. served as controls to be evaluated if necessary. […]
smiles,measurement,setting,value
"CCCNc1nc(NCCC)nc(N(C)OC)n1.O=S(=O)(O)O [XXXVI, N-(4,6-Bis-n-propylamino-[1,3,5]triazin-2-yl)-N,O-dimethyl-hydroxylamine hydrogen sulfate]","minute ventilation, hypoxic ventilatory response",[1],significantly potentiates the hypoxic ventilatory response
same,solubility thermodynamic,"[2]; aqueous buffer, target pH 4.0, final pH 3.79",20.8 mg/mL
same,solubility thermodynamic,"[2]; aqueous buffer, target pH 4.5, final pH 4.37",3.46 mg/mL
same,solubility thermodynamic,"[2]; aqueous buffer, target pH 5.0, final pH 4.52",2.73 mg/mL
same,solubility thermodynamic,"[2]; aqueous buffer, target pH 5.5, final pH 5.02",0.99 mg/mL
same,appearance afterwards Shaking,[2]; target pH 2.5,Clear solution
same,(XXXVI) concentration,"[2]; target pH 2.5, final pH 2.42",104.1
same,appearance afterwards Shaking,[2]; target pH 3.0,Clear solution
same,(XXXVI) concentration,"[2]; target pH 3.0, final pH 3.00",99.8
same,appearance afterwards Shaking,[2]; target pH 3.5,Clear solution
same,(XXXVI) concentration,"[2]; target pH 3.5, final pH 3.51",101.6
same,appearance afterwards Shaking,[2]; target pH 4.0,Precipitate
same,appearance afterwards Shaking,[2]; target pH 4.5,Precipitate
same,appearance afterwards Shaking,[2]; target pH 5.0,Precipitate
same,appearance afterwards Shaking,[2]; target pH 5.5,Precipitate
same,solubility,"[3]; 0.9% NaCl, listed as (XXXV) hydrogen sulfate salt, hydrogen sulfate",>201.4 mg/mL
same,solubility,"[3]; 30% PEG-400, listed as (XXXV) hydrogen sulfate salt, hydrogen sulfate",>197.0 mg/mL and >198.4 mg/mL
same,solubility,"[3]; 30% Propylene Glycol, listed as (XXXV) hydrogen sulfate salt, hydrogen sulfate",>89.47 mg/mL
same,solubility,"[3]; 70% PEG-400, listed as (XXXV) hydrogen sulfate salt, hydrogen sulfate",>85.28 mg/mL and >91.43 mg/mL
same,solubility,"[3]; 70% Propylene Glycol, listed as (XXXV) hydrogen sulfate salt, hydrogen sulfate",>92.43 mg/mL
same,solubility,"[3]; Acetonitrile, listed as (XXXV) hydrogen sulfate salt, hydrogen sulfate",68.5 mg/mL and 67.1 mg/mL
same,solubility,"[3]; Ethanol, listed as (XXXV) hydrogen sulfate salt, hydrogen sulfate",>212.2 mg/mL
same,solubility,"[3]; Methanol, listed as (XXXV) hydrogen sulfate salt, hydrogen sulfate",>98.52 mg/mL
same,solubility,"[3]; PEG-400 (100%), listed as (XXXV) hydrogen sulfate salt, hydrogen sulfate",35.74 mg/mL
same,solubility,"[3]; Propylene Glycol (100%), listed as (XXXV) hydrogen sulfate salt, hydrogen sulfate",>94.65 mg/mL
same,solubility,"[3]; Water, listed as (XXXV) hydrogen sulfate salt, hydrogen sulfate",414.5 mg/mL and 441.5 mg/mL
same,solubility,"[3]; aqueous with cosolvent or surfactant or cyclodextrin, thermodynamic from solid, 30% PEG-400, read-out: Solubility",~198 mg/mL
same,solubility,"[3]; aqueous with cosolvent or surfactant or cyclodextrin, thermodynamic from solid, 30% Propylene Glycol, read-out: Solubility",> 93.2 mg/mL
same,solubility,"[3]; aqueous with cosolvent or surfactant or cyclodextrin, thermodynamic from solid, 30% and 70% PEG-400, read-out: solubility",≥ 90 mg/mL
same,solubility,"[3]; aqueous with cosolvent or surfactant or cyclodextrin, thermodynamic from solid, 30%, 70% and 100% propylene glycol, read-out: solubility",≥ 90 mg/mL
same,solubility,"[3]; aqueous with cosolvent or surfactant or cyclodextrin, thermodynamic from solid, 70% PEG-400, read-out: Solubility",≥ 90 mg/mL
same,solubility,"[3]; aqueous with cosolvent or surfactant or cyclodextrin, thermodynamic from solid, 70% Propylene Glycol, read-out: Solubility",> 87.8 mg/mL
same,solubility,[3]; ethanol and methanol,freely soluble
same,solubility,"[3]; organic solvent or mixture, thermodynamic from solid, Acetonitrile, read-out: Solubility",~68 mg/mL
same,solubility,"[3]; organic solvent or mixture, thermodynamic from solid, Ethanol, read-out: Solubility",> 211 mg/mL
same,solubility,"[3]; organic solvent or mixture, thermodynamic from solid, Methanol, read-out: Solubility",> 109 mg/mL
same,solubility,"[3]; organic solvent or mixture, thermodynamic from solid, PEG-400 (100%), read-out: Solubility",~36 mg/mL
same,solubility,"[3]; organic solvent or mixture, thermodynamic from solid, Propylene Glycol (100%), read-out: Solubility",> 92.1 mg/mL
same,solubility,"[3]; saline or isotonic, thermodynamic from solid, 0.9% NaCl, read-out: Solubility",> 206 mg/mL
same,solubility,"[3]; saline or isotonic, thermodynamic from solid, 5% Dextrose, read-out: Solubility",> 201 mg/mL
same,solubility,"[3]; saline or isotonic, thermodynamic from solid, IV solutions (0.9% saline and 5% dextrose), read-out: solubility",≥ 200 mg/mL
same,solubility,"[3]; water, thermodynamic from solid, Water, read-out: Solubility",> 400 mg/mL
same,solubility,"[3]; water, thermodynamic from solid, water, IV solutions (0.9% saline and 5% dextrose), ethanol, methanol, 30%, 70% and 100% propylene glycol, read-out: solubility",> 90 mg/mL
"CCCNc1nc(NCCC)nc(N(C)OC)n1 [XXXV, N-(4,6-Bis-n-propylamino-[1,3,5]triazin-2-yl)-N,O-dimethyl-hydroxylamine]",solubility,[2]; aqueous buffer,0.18 mg/mL
same,solubility,"[2]; pH 3.16, aqueous buffer",50 mg/mL
same,solubility,"[2]; pH 3.46, aqueous buffer",25 mg/mL
same,pH dependence of solubility,[2]; pH 3.5,solubility was high at pH 3.5 or lower
same,solubility,"[2]; pH 3.86, aqueous buffer",10 mg/mL
same,solubility,"[3]; organic solvent or mixture, thermodynamic from solid, solubility",> 90 mg/mL
same,solubility,"[3]; water, thermodynamic from solid, Solubility",~0.21 mg/mL
same,Assay,"[4]; 10 mM, 40° C. 1 wk",0.953
same,pH,"[4]; 10 mM, 40° C. 1 wk",3.26
same,Assay,"[4]; 10 mM, 40° C. 2 wk",0.947
same,pH,"[4]; 10 mM, 40° C. 2 wk",3.21
same,Assay,"[4]; 10 mM, 60° C. 1 wk",0.953
same,pH,"[4]; 10 mM, 60° C. 1 wk",3.3
same,Impurities,"[4]; 10 mM, 60° C. 1 wk",0.48%
same,Assay,"[4]; 10 mM, 60° C. 2 wk",0.956
same,pH,"[4]; 10 mM, 60° C. 2 wk",3.2
same,Impurities,"[4]; 10 mM, 60° C. 2 wk",0.89%
same,Assay,"[4]; 10 mM, initial",0.971
same,pH,"[4]; 10 mM, initial",3.16
same,Assay,"[4]; 20 mM, 40° C. 1 wk",0.965
same,pH,"[4]; 20 mM, 40° C. 1 wk",3.33
same,Impurities,"[4]; 20 mM, 40° C. 1 wk",0.13%
same,Assay,"[4]; 20 mM, 40° C. 2 wk",0.966
same,pH,"[4]; 20 mM, 40° C. 2 wk",3.30
same,Assay,"[4]; 20 mM, 60° C. 1 wk",0.943
same,pH,"[4]; 20 mM, 60° C. 1 wk",3.3
same,Impurities,"[4]; 20 mM, 60° C. 1 wk",0.58%
same,Assay,"[4]; 20 mM, 60° C. 2 wk",0.947
same,pH,"[4]; 20 mM, 60° C. 2 wk",3.3
same,Impurities,"[4]; 20 mM, 60° C. 2 wk",0.88%
same,Assay,"[4]; 20 mM, initial",1.01
same,pH,"[4]; 20 mM, initial",3.27
same,Assay,"[4]; 50 mM, 40° C. 1 wk",0.959
same,pH,"[4]; 50 mM, 40° C. 1 wk",3.34
same,Assay,"[4]; 50 mM, 40° C. 2 wk",0.949
same,pH,"[4]; 50 mM, 40° C. 2 wk",3.29
same,Assay,"[4]; 50 mM, 60° C. 1 wk",0.936
same,pH,"[4]; 50 mM, 60° C. 1 wk",3.3
same,Impurities,"[4]; 50 mM, 60° C. 1 wk",0.59%
same,Assay,"[4]; 50 mM, 60° C. 2 wk",0.943
same,pH,"[4]; 50 mM, 60° C. 2 wk",3.3
same,Impurities,"[4]; 50 mM, 60° C. 2 wk",0.87%
same,Assay,"[4]; 50 mM, initial",0.976
same,pH,"[4]; 50 mM, initial",3.28
same,Assay,"[4]; 100 mM, 40° C. 1 wk",0.964
same,pH,"[4]; 100 mM, 40° C. 1 wk",3.32
same,Impurities,"[4]; 100 mM, 40° C. 1 wk",0.26%
same,Assay,"[4]; 100 mM, 40° C. 2 wk",0.956
same,pH,"[4]; 100 mM, 40° C. 2 wk",3.29
same,Impurities,"[4]; 100 mM, 40° C. 2 wk",0.38%
same,Assay,"[4]; 100 mM, 60° C. 1 wk",0.962
same,pH,"[4]; 100 mM, 60° C. 1 wk",3.3
same,Impurities,"[4]; 100 mM, 60° C. 1 wk",0.73%
same,Assay,"[4]; 100 mM, 60° C. 2 wk",0.946
same,pH,"[4]; 100 mM, 60° C. 2 wk",3.2
same,Impurities,"[4]; 100 mM, 60° C. 2 wk",1.2%
same,Assay,"[4]; 100 mM, initial",0.962
same,pH,"[4]; 100 mM, initial",3.30
same,Assay,"[4]; 250 mM, 40° C. 1 wk",0.972
same,pH,"[4]; 250 mM, 40° C. 1 wk",3.25
same,Impurities,"[4]; 250 mM, 40° C. 1 wk",0.21%
same,Assay,"[4]; 250 mM, 40° C. 2 wk",0.945
same,pH,"[4]; 250 mM, 40° C. 2 wk",3.22
same,Impurities,"[4]; 250 mM, 40° C. 2 wk",0.56%
same,Assay,"[4]; 250 mM, 60° C. 1 wk",0.955
same,pH,"[4]; 250 mM, 60° C. 1 wk",3.2
same,Impurities,"[4]; 250 mM, 60° C. 1 wk",1.03%
same,Assay,"[4]; 250 mM, 60° C. 2 wk",0.936
same,pH,"[4]; 250 mM, 60° C. 2 wk",3.2
same,Impurities,"[4]; 250 mM, 60° C. 2 wk",1.8%
same,Assay,"[4]; 250 mM, initial",0.947
same,pH,"[4]; 250 mM, initial",3.21
same,effect of buffer strength on impurity levels,"[4]; 40° C., buffer concentration relevant to the formulation (ca. 10-50 mM)",no effect of buffer strength at 40 °C
